Where two headings read alike, the source gives them in different places.
Key:
[1] = system: collagen III; experiment: ELISA measurement of collagen III synthesis in fibroblast culture, 72 h; format: cell-based; settings: Homo sapiens, read-out: stimulation of synthesis of collagen III
Description: The protocol is the same as that described with collagen I except that the ELISA is directed against collagen III (human) and the culture treatment time is 72 h instead of the 48 h with collagen I.

[2] = system: collagen I; experiment: ELISA measurement of collagen I synthesis (collagen I secreted into the medium) in fibroblast culture, 48 h; format: cell-based, human; settings: for ng collagen I/10^4 cells/48 h: mean±SD, control 2004 ± 132; for ng coll. I/10,000 HF/48 h: control (Asc. 25 μM + DMSO 0.1%) 2466 ± 289
Description: An ELISA method is used to measure collagen I synthesis, with and without treatment, on a culture of fibroblasts originating from a face lift performed on a person.
a.1) Fibroblast cultures:
The fibroblasts are cultivated by the explant method up to the point of confluence, at 37° C., in a medium consisting of a mixture of E199-C medium and 10% fetal calf serum, in a humidity-saturated atmosphere containing 5% of CO2.
Then, after detachment with an isotonic solution containing 0.1% of trypsin and 0.02% of EDTA, buffered to pH 7.2, the cells are inoculated into 96-well microplates (FALCON) at a rate of 10^4 cells per well in an E199-C medium containing 2% of serum.
After 24 h this medium is replaced, for 48 h of incubation, with the same medium without serum and containing 25 μM sodium ascorbate (incubation medium), with or without the test products. The products, solubilized in DMSO, are added to the culture medium at different concentrations.
a.2) Assay of collagen I:
The amount of collagen I secreted into the medium after 48 h of incubation with or without the products was determined by means of an ELISA (Enzyme-Linked Immuno Sorbent Assay) test.
The incubation medium is collected and transferred to the wells of a microtiter plate (Nunc Immunoplate) containing protease inhibitors. Incubation for 24 h at 4° C. allows the collagen to adhere to the plastic. The plates are then rinsed with PBS (Phosphate Buffered Saline).
After 24 h of incubation at 4° C. with serum albumin to prevent non-specific antibody-plastic binding, anti-human collagen I rabbit antibodies (Institut Pasteur, Lyon, France) are added over 1.5 h at 22° C. After rinsing with PBS, the bound antibodies are disclosed with anti-rabbit IgG goat antibodies (INTERCHIM, Montlugon, France) conjugated with an alkaline phosphatase, which, in the presence of paranitrophenyl phosphate, will produce a paranitrophenol absorbing at 405 nm.
The optical densities obtained are converted to nanograms of collagen using a calibration curve established under the same experimental conditions with purified human collagen I (Institut Jacques Boy, France).
a.3) Statistical interpretation:
The amounts of collagen (mean±standard deviation) secreted by the treated and untreated cells are compared by means of a Student t test. The significance level is taken as 0.05.
b.1) The protocol described above is applied in order to study the effect of the concentration of ginsenoside R0 on the stimulation of collagen I synthesis.
Table 1 gives the results obtained with compositions respectively containing 0, 1, 2.5 and 10 μg of ginsenoside R0 per ml.

SMILES: CC1(C)CC[C@]2(C(=O)O[C@@H]3O[C@H](CO)[C@@H](O)[C@H](O)[C@H]3O)CC[C@]3(C)C(=CC[C@@H]4[C@@]5(C)CC[C@H](O[C@@H]6O[C@H](C(=O)O)[C@@H](O)[C@H](O)[C@H]6O[C@@H]6O[C@H](CO)[C@@H](O)[C@H](O)[C@H]6O)C(C)(C)[C@@H]5CC[C@]43C)[C@@H]2C1 [ginsenoside R0]
- activation at 2.5 µg/mL ([1]; 2.5 μg/ml): 33%
- activation at 10 µg/mL ([1]; 10 μg/ml): 81%
- activation at 1 µg/mL ([2]; Homo sapiens, Fibroblast, 48 h, Table 1, 1 μg/ml, S: significant at the 0.05 level, read-out: Stimulation of synthesis (collagen I)): 8%
- activation at 2.5 µg/mL ([2]; Homo sapiens, Fibroblast, 48 h, Table 1, 2.5 μg/ml, S: significant at the 0.05 level, read-out: Stimulation of synthesis (collagen I)): 29%
- activation at 10 µg/mL ([2]; Homo sapiens, Fibroblast, 48 h, Table 1, 10 μg/ml, S: significant at the 0.05 level, read-out: Stimulation of synthesis (collagen I)): 44%
- activation at 1 µg/mL ([2]; Homo sapiens, Fibroblast, 48 h, Table 2, 1 μg/ml, Example 1 S (p = 0.021), Example 2 S (p = 0.0006), ginsenoside R0 NS, read-out: % stimulation/control (collagen I)): 1%
- activation at 1.5 µg/mL ([2]; Homo sapiens, Fibroblast, 48 h, Table 2, 1.5 μg/ml, S (p = 0.024), read-out: % stimulation/control (collagen I)): 43%
- activation at 10 µg/mL ([2]; Homo sapiens, Fibroblast, 48 h, Table 2, 10 μg/ml, Example 1 S (p = 0.003), Example 2 S (p = 0.0006), ginsenoside R0 S (p = 0.002), read-out: % stimulation/control (collagen I)): 66%
- ng collagen I/10^4 cells/48 h ([2]; Table 1, 1 μg/ml): 2172 ± 88 ng collagen I/10^4 cells/48 h
- ng collagen I/10^4 cells/48 h ([2]; Table 1, 2.5 μg/ml): 2599 ± 163 ng collagen I/10^4 cells/48 h
- ng collagen I/10^4 cells/48 h ([2]; Table 1, 10 μg/ml): 2889 ± 74 ng collagen I/10^4 cells/48 h
- ng coll. I/10,000 HF/48 h ([2]; Table 2, 1 μg/ml): 2482 ± 276 ng coll. I/10,000 HF/48 h
- ng coll. I/10,000 HF/48 h ([2]; Table 2, 1.5 μg/ml): 3529 ± 516 ng coll. I/10,000 HF/48 h
- ng coll. I/10,000 HF/48 h ([2]; Table 2, 10 μg/ml): 4099 ± 480 ng coll. I/10,000 HF/48 h

Source: US5747538A, “Use of ginsenoside R0 or a plant extract containing same to promote collagen synthesis” (priority 1994, dated 1998)
